Data published in article PMC9386499, “Integrated regulation of PKA by fast and slow neurotransmission in the nucleus accumbens controls plasticity and stress responses” (The Journal of Biological Chemistry, 2022).
No end group written: not given here.

How the values were obtained:
[1] = target: T1, Cdk5-dependent phosphorylation of RIIβ (Homo sapiens, UniProt Q00535); assay: Inhibition of Cdk5-dependent phosphorylation of RIIβ in vitro by siP; type: biochemical; conditions: means ± S.E.M.
T1 construct: purchased Millipore
T1 sequence (Q00535 whole entry): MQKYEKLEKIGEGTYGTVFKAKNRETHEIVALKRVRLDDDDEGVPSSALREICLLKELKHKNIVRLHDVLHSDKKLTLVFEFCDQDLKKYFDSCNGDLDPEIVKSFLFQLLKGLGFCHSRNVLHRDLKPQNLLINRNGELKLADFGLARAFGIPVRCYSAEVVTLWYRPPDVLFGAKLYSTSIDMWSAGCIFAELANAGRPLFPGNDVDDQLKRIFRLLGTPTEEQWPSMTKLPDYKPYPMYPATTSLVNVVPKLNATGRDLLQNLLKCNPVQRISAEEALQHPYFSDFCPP
T1 sequence (Q15078 99-307 partner limits assumed): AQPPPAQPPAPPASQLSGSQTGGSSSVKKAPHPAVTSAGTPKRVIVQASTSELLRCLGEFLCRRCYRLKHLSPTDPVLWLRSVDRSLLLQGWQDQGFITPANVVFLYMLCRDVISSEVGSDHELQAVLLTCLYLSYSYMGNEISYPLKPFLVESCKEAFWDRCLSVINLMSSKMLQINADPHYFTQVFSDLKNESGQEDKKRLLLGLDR
Method: (§1) Rat recombinant RIIβ was derived as a C-terminal 6XHis fusion by Ni-NTA affinity purification using standard pET vector methods (Novagen). RIIβ was phosphorylated in vitro by Cdk5 or PKA using standard conditions ([55]). Cdk5/p25 was from Millipore, and PKA was from NEB. 32P incorporation was quantitated by PhosphorImager analysis. All kinetic analyses were conducted under empirically defined linear conditions. PKA activity was measured by phosphorylation of recombinant inhibitor-1 ([56]) or DARPP-32 ([14]). For phosphorylation site identification, preparatively phosphorylated RIIβ was subjected to nano-liquid chromatography tandem mass spectrometry as previously described ([57]). Digests were redissolved in 0.1% trifluoracetic acid and loaded onto a ZipTip with C18 resin (Millipore) for purification. Analysis was conducted using nanoelectrospray-QSTAR Pulsar I quadrupole time-of-flight tandem mass spectrometry (MDS Proteomics). Structural model of AKAP/RIIβ dimer interaction was based on published data of AKAP (PDB: 2HWN) ([24]) and RIIβ (PDB: 1CX4) ([58]).

[2] = system: PKA; assay: PKA inhibition curves for WT versus S114D RIIβ (in vitro); type: biochemical; conditions: means ± S.E.M., n = 3
Method: as §1

[3] = system: Cdk5; assay: In vitro phosphorylation of RIIβ by Cdk5 (stoichiometry); type: biochemical; conditions: saturating conditions, 32P incorporation
Method: as §1

[4] = system: D1R neurons (NAc); assay: Whole-cell patch-clamp recordings of D1R-expressing neurons (EPSP, LTP, AMPA/NMDA ratio); type: cell-based, mouse; conditions: NBQX 10 μM after APV 20 μM
Text: For whole-cell recordings, Drd2-EGFP FVB mice were deeply anesthetized and transcardially perfused with ice-cold cutting artificial cerebrospinal fluid containing (in mM): 87 NaCl, 2.5 KCl, 0.5 CaCl2, 7 MgCl2, 1.25 NaH2PO4, 25 NaHCO3, 25 glucose, and 75 sucrose, bubbled with 95% O2/5% CO2. Parasagittal slices were cut transversely at 300 μm using a vibrating blade microtome (VT1200S, Leica Microsystems). Slices were transferred to normal saline solution containing (in mM): 119 NaCl, 2.5 KCl, 2.5 CaCl2, 1.3 MgCl2, 1.3 NaH2PO4, 26 NaHCO3, and 20 glucose at 32 °C for 30 min and then allowed to recover for 1 h at room temperature before recordings. Individual slices were transferred to a submerged chamber mounted on a fixed-stage upright microscope (Zeiss Axioskop FS) and continuously perfused at 30 °C with normal saline solution containing (in μM): 0 MgCl2, 50 picrotoxin, and 10 glycine. GFP-negative D1 cells were visualized by infrared differential interference contrast microscopy with a water-immersion 63X objective (0.9 NA, Zeiss). Current clamp recordings were performed with unpolished pipettes containing (in mM): 140 K-gluconate, 5 KCl, 2 MgCl2, 10 Hepes, 4 Mg-ATP, 0.3 Na-GTP, 10 Na2-creatine phosphate, 0.2 Na-EGTA, 290 to 300 mOsm, pH 7.3 (final resistance, 3-4MΩ). LTP of EPSPs was induced by HFS in control and RIIβ siP-treated D1 cells (at −70 mV). […]

[5] = system: PKA; assay: PKA inhibition by dephospho- vs. phospho-T69 RIIβ; type: biochemical; conditions: in vitro, n=4
Method: as §1

[6] = system: rats; assay: Forced swim test (FST) after intra-accumbens infusion; type: in vivo, rat; conditions: ketamine 2 µg in 1 µl, subanesthetic, bilateral intra-accumbal
Method: Rats were anesthetized with isoflurane and placed in a stereotaxic frame (Kopf Instruments). Bilateral cannulas (3 mm center-to-center distance, cut 8 mm below pedestal, Plastics One) were placed in NAc core (anterior-posterior to bregma +1.5 mm, medial/lateral ±1.5 mm, depth −6.8 mm). Peptides were bilaterally infused 1 week later in awake and mobile animals. Injection volume was 1 μl of peptide (100 μM in PBS, 10% DMSO, per cerebral hemisphere). Animals were allowed to recover for 1 h prior to behavioral testing. Accuracy was confirmed by infusion of methylene blue dye or direct visualization of cannula tracts postbehavioral testing.
The Porsolt FST was conducted as described previously ([64]). Briefly, one-trial forced swim was used for acute stress. Nonsurgerized rats underwent an 8 min swim in an 8-gallon transparent water filled cylinder at 24 to 25 °C. Animals recovered in their home cages for 1 h prior to brain dissection. The NAc was then microdissected for immunoblotting. […] They were then placed in a locomotor chamber, and locomotor activity was monitored for 30 min in circular donut-shaped locomotor chambers in the dark with a computer-monitored infrared photobeam system (MED-PC, Med Associates). […] The last 6 min of the test were scored for latency to immobility and time immobile, with immobility defined as the time animals spent completely motionless.

[7] = system: phospho-Thr69 RIIβ; assay: Slice pharmacology, immunoblot of phospho-Thr69 RIIβ; type: cell-based, rat
Method: (§2) Slice pharmacology was conducted as previously described ([62]). Briefly, striatum was microdissected from 350 μ coronal rat brain slices, equilibrated for 1 h, 30 °C in Kreb’s buffer with 10 μg/ml adenosine deaminase (Roche). […] Briefly, conditions included low Mg^2+ (0.5 mM) and a 30 min tissue recovery in drug-free buffer prior to harvest. Tissue was snap-frozen on dry ice. Immunoblotting was as previously described ([63]) and analyzed using Image J software (NIH). Data from immunoblots with phosphorylation-specific antibodies were normalized to total protein. Antibodies used included those for PKA regulatory subunits (BD Biosciences Cat# 610626, RRID: AB_397958; BD Biosciences Cat# 610609 RRID:AB_397943; BD Biosciences Cat# 612242 RRID:AB_399565), phospho-S114 RIIβ (BD Biosciences Cat# 612550 RRID:AB_399845), and NMDAR1 (BD Biosciences Cat# 556308 RRID:AB_396353), phospho-S845 GluA1 (PhosphoSolutions Cat# p1160-845 RRID:AB_2492128) and phospho-T34 DARPP-32 (PhosphoSolutions Cat# p1025-34 RRID:AB_2492068), and total GluA1 (Millipore Cat# 05-855R RRID:AB_1587070). Total DARPP-32 antibody was from H. Hemmings (Weill Cornell Medical College).

[8] = system: cortico-ventral striatal synapses (NAc); assay: Cortico-ventral striatal field recordings (fEPSP, LTP, I/O, PPR); type: cell-based, rat; conditions: slices
Method: Adult rats were anaesthetized by isoflurane (Piramal Healthcare), and brains were placed in ice-cold sucrose saline solution (4 °C) containing (in mM): 87 NaCl, 75 Sucrose, 2.5 KCl, 1.25 NaH2PO4, 7 MgCl2, 0.5 CaCl2, 25 NaHCO3, and 10 glucose (pH 7.4; saturated with […]). Parasagittal vibratome slices (350 μ thick) containing prefrontal cortex and NAc core were transferred into saline solution containing 125 NaCl, 2.5 KCl, 1.25 NaH2PO4, 1.3 MgCl2, 2 CaCl2, 25 NaHCO3, and 25 glucose (pH 7.4; saturated with […]) and maintained for 20 min at 30 °C, then transferred to room temperature (22–25 °C) and allowed 1 h recovery. […]
Extracellular recordings: fEPSPs were obtained at 25 °C in the presence of the GABAA antagonist (SR95531, Gabazine, 2 μM) and were evoked by square current pulses (0.2 ms) at 0.033 Hz with a bipolar stimulation electrode (FHC) placed at the border of corpus callosum separated by ∼300 to 500 μ from the recording electrode. […] The paired pulse ratio (PPR) paradigm was applied using different inter-stimulus intervals and PPR changes were measured as PPR = second fEPSP amplitude/first fEPSP amplitude. After recording stable baseline for at least 10 min, LTP was induced by HFS (4 trains, 100 Hz, 1 s duration, separated by 20 s). fEPSP amplitude was monitored for at least 50 min after HFS to evaluate LTP. […]

[9] = system: phospho-Ser114 RIIβ; assay: Slice pharmacology, immunoblot of phospho-Ser114 RIIβ; type: cell-based, rat; conditions: striatal slices, NMDA 50 μM, 5 min; *p < 0.05, n = 4
Method: as §2

Compound: RQIKIWFQNRRMKWKKAGAAAGGGTPSKGVNFAEE [RIIβ siP]
- IC50 [1]: 7.14 ± 2.28 µM

Compound: RIIβ: Rat recombinant RIIβ, C-terminal 6XHis fusion; PKA regulatory subunit
- IC50 [2]: 0.0015 ± 0.0003 µM
- maximal stoichiometry of phosphorylation by Cdk5 [3]: 0.6 mol PO4/mol of substrate

Compound: NS(=O)(=O)c1cccc2c1c([N+](=O)[O-])cc1nc(O)c(O)nc12 [NBQX]
- effect on EPSP responses, D1R neurons [4]: ablated EPSP responses

Compound: Thr69 RIIβ: RIIβ phosphorylated at Thr69 by Cdk5
- effect of Thr69 phosphorylation on inhibition of PKA catalytic activity by RIIβ [5]: did not alter the inhibition of PKA catalytic activity

Compound: CNC1(c2ccccc2Cl)CCCCC1=O (centres unmarked) [ketamine]
- RIIβ siP effects compared with ketamine in FST [6]: closely mimicked

Compound: C=C1[C@@H](O)[C@@H]2O[C@]3(CC[C@H](/C=C/[C@@H](C)[C@@H]4CC(C)=C[C@@]5(O[C@H](C[C@@](C)(O)C(=O)O)CC[C@H]5O)O4)O3)CC[C@H]2O[C@@H]1[C@@H](O)C[C@H](C)[C@H]1O[C@@]2(CCCCO2)CC[C@H]1C [okadaic acid]
- basal phospho-Thr69 RIIβ, okadaic acid 200 nM ([7]; striatal slices, 200 nM, 1 h (selective PP2A inhibition), *p < 0.05, n = 4-5): increased
- basal phospho-Thr69 RIIβ, okadaic acid 1 μM ([7]; striatal slices, 1 μM, 1 h (PP1 inhibition), **p < 0.01, n = 4-5): increased
- effect on NMDA-induced reduction of phospho-Thr69 RIIβ ([7]; striatal slices, NMDA 25 µM, 5 min, cyclosporin A 10 µM, 1 h or okadaic acid 1 µM, 1 h, n = 4-6): attenuated the effect of NMDA

Compound: Oc1cc2c(c(Cl)c1O)CCNCC2c1ccccc1 (centres unmarked) [SKF81297]
- LTP (HFS-induced), D1 agonist ([8]; SKF81297 2 µM, 15 min bath application, #p < 0.05 control vs SKF, n = 7): enhanced

Compound: CN[C@H](CC(=O)O)C(=O)O [NMDA, N-methyl-D-aspartate]
- phospho-Thr69 RIIβ, NMDA ([7]; striatal slices, NMDA 50 μM, 5 min, *p < 0.05, n = 4): strongly reduced the phosphorylation state of Thr69
- phospho-Thr69 RIIβ, LTP-like conditions ([7]; ventral striatal slices, low Mg2+, NMDA 25 μM, 5 min and/or dopamine 10 μM, 15 min, 30 min delay after treatment, n = 5 to 6): decrease in phospho-Thr69 RIIβ
- phospho-Ser114 RIIβ, NMDA [9]: PKA-dependent phosphorylation at Ser114 was increased

Compound: RQIKIWFQNRRMKWKK-AAGAGSGAVAFKGANGEA [scrambled siP, penetratin-tagged scramble control peptide]
- fEPSP amplitude after HFS (LTP) ([8]; 10 μM for 15 min, washout 25 min, maintained through 50 min following HFS, 25 °C, n = 5): 0.31 ± 0.03 mV
